Results on five substances are retold here after patent US8895522B2, “Composition and method for the prevention, treatment and/or alleviation of an inflammatory disease” (Index Pharmaceuticals AB, priority 2005, dated 2014).

Data set [1] deals with LPS-induced airway inflammation in mice. The experiment in a line: Third LPS induced asthma study in mice, BALF cell counts. The class given is in vivo. The following applies: for number of infiltrating inflammatory cells in the BAL fluid: oligonucleotides 150 μg/animal tracheal 18 h prior to LPS, dexamethasone 5 mg/kg i.p. 1 h before, FIG. 6. As to the method:
As with examples 1 and 2, aim of the study was to examine the pharmaceutical effects of SEQ. ID. NO. 3 using airway inflammation as disease endpoint, and to compare the efficacy with that of corticosteroids. In addition, a number of control oligonucleotides were included being SEQ.ID.NO 4, and SEQ.ID.NO 7. The induction of LPS induced asthma and the protocol of analyses was conducted as described in Example 2.
Briefly, LPS-induced airway inflammation in mice was treated with SEQ.ID.NOs 3, 4 and 7 (150 μg/animal) administered by tracheal instillation 18 h prior to challenge with 5 μg LPS. The untreated group represents healthy individuals and mice in the control group were given solvent only (H2O+LPS). The control treatment of dexamethasone (5 mg/kg, i.p.) was given one hour before LPS instillation. Analysis of BAL fluid was performed 20 hours after LPS instillation. The total number of leukocytes and neutrophils in BAL fluid is shown. Data expressed as mean±SD (n=6). ***p<0.001, *p<0.05, using One-way ANOVA with Dunnett's post hoc corrections versus control group.

For data set [2], the system named is murine spleen cells. Put plainly: Induction of IL-10 from murine spleen cells (ELISpot). Particulars: mouse splenocytes, 48 hours incubation; for induction of IL-10 (positive spots per well): FIG. 9. Format: cell-based. As to the method:
(§1) The spleen was excised from a test animal. A single cell suspension was prepared using a nylon cell strainer (100 μm). The cells were washed once in complete RPMI medium at 1200 rpm for 7-10 minutes, whereupon the supernatant was poured off and the cells resuspended. 1 ml of “red blood cell lysing buffer” was added, and the mixture incubated for 1-2 minutes at RT. 5 ml of complete RPMI was added and the mixture centrifuged as above (C2).
(§2) The supernatant was poured off, the pellet resuspended and another 5 ml of complete RPML added. The cells were counted by dilution in trypan blue, so that between 50-100 cells were counted in the area.
(§3) Approximately 500,000 mouse splenocyte cells per well were incubated for 48 hours in the presence of the different oligonucleotides at the concentrations indicated. Specifically, SEQ.ID.NO 3, SEQ.ID.NO 4, and SEQ.ID.NO 7. Following incubation the wells were developed according to the kit suppliers recommendations and the average number of positive spots per well were determined using a AID ELISpot reader system, (Strassberg Germany).
(§4) Elispot assays where performed according to the manufactures recommended guidelines (MabTech) and the plates were analyzed using an AID ELISpot reader system (Autoimmun Diagnostika GmbH, Strassberg, Germany).

For data set [3], the system named is murine spleen cells. Put plainly: Induction of IFN-gamma from murine spleen cells (ELISpot). Format: cell-based. The following applies: mouse splenocytes, 48 hours incubation, FIG. 10. Here is the method: as §1, §2, §3
Regarding the production of IFN-gamma, mouse splenocytes were treated as described above, with the intention to monitor levels of IFN-gamma by Elispot asssy. Identical conditions and concentrations of oligonucleotides where used.
as §4

Data set [4] relates to human PBMC. The experiment in a line: Induction of IFN-gamma from healthy human PBMC (ELISpot). The class given is cell-based. The following applies: PBMC from 7 healthy individuals, 48 hours, FIG. 12. Here is the method: (§5) Whole blood was obtained from healthy blood donors. PBMCs were prepared from 30 ml whole blood according to the following protocol:
(§6) 30 ml blood was transferred directly into heparinized tubes. All blood was transferred into one 50 ml Falcon tube and PBS added up to 50 ml. 15 ml Ficoll (17-1440-03, obtained from Amersham Bioscience AB, Uppsala) was then added into two falcon tubes (50 ml). The PBS-treated blood was then carefully added on the top of to Ficoll, 25 ml to each tube. The tubes were then centrifuged 25 min at 1700 RPM at RT (20° C.).
RPMIc medium was prepared under sterile conditions, using a 0.22 uM filter. (RPMIc denotes a RPMI 1640 culture medium (R0883, Sigma) supplemented with 5% heat-inactivated (56° C.,1 h) FCS 1.5 mM L-glutamine (G7513, Sigma), 100 U/ml penicillin and 100 ug/ml streptomycin, PEST (P0781, Sigma), hepes (H0887, Sigma), and gentamycin (G1272, Sigma)). […]
The cells were counted and left in PBS, then centrifuged at 1200 RPM, 10 min. Medium was then added to obtain the concentration of interest, and the cells counted (16 squares)×3. The mean value was calculated and multiplied with the dilution factor×10^4=cells/ml. […]
Elispot assays where performed according to the manufactures recommended guidelines (MabTech) and the plates were analyzed using an AID ELISpot reader system (Autoimmun Diagnostika GmbH, Strassberg, Germany). […]

The subject of data set [5] is human PBMC. Put plainly: Induction of IL-10 from healthy human PBMC (ELISpot). Particulars: PBMC from 5 healthy individuals, 48 hours; for induction of IL-10 producing cells: FIG. 11. The class given is cell-based. Here is the method:
as §5, §6
(§7) RPMIc medium was prepared under sterile conditions, using a 0.22 uM filter. (RPMIc denotes a RPMI 1640 culture medium (R0883, Sigma) supplemented with 5% heat-inactivated (56° C.,1 h) FCS 1.5 mM L-glutamine (G7513, Sigma), 100 U/ml penicillin and 100 ug/ml streptomycin, PEST (P0781, Sigma), hepes (H0887, Sigma), and gentamycin (G1272, Sigma)).
(§8) The interphase was carefully pipetted from the two tubes into 2x 50mi Falcon tubes. PBS was added up to 50 ml in each tube, and the tubes centrifuged for 10 min at 1700 RPM (4° C.).
(§9) The supernatant was discarded, and PBS added to 30 ml, whereupon the tubes were centrifuged at 10 min at 1500 RPM (4° C.). Again, the supernatant was discarded, 10 ml PBS added, and the pellets from the two falcon tubes pooled.
(§10) The cells were counted and left in PBS, then centrifuged at 1200 RPM, 10 min. Medium was then added to obtain the concentration of interest, and the cells counted (16 squares)×3. The mean value was calculated and multiplied with the dilution factor×10^4=cells/ml. Diluting the cells to 10 million/ml will result in 500.000 cells/50 ul medium, 6 million/ml will be 300.000/50 ul medium.
as §4
Approximately 500,000 PBMC cells per well, derived from blood from healthy human donors, were incubated for 48 hours in the presence of the different oligonucleotides. Specifically, SEQ.ID.NO 1, SEQ.ID.NO 2, SEQ.ID.NO 6 and SEQ.ID.NO 8. Following incubation, the wells were developed according to the kit supplier's recommendations and the average number of positive cells producing IL-10 per well were counted using an AID ELISpot reader system, (Autoimmun Diagnostika GmbH, Strassberg, Germany).

The subject of data set [6] is human PBMC. Put plainly: Induction of IFN-alpha from healthy human PBMC (ELISpot). The class given is cell-based. Particulars: PBMC from 10 healthy individuals, 48 hours; for induction of IFN-alpha producing cells: FIG. 13. As to the method:
as §5, §6, §7, §8, §9, §10, §4
For this assay again 500,000 PBMC cells per well, derived from healthy human blood were incubated for 48 hours in the presence of the different oligonucleotides. Specifically, SEQ.ID.NO 1, SEQ.ID.NO 2, and SEQ.ID.NO 8. Following incubation, the wells were developed according to the kit suppliers recommendations and the average number of positive cells producing IFN-alpha per well were determined using an AID ELISpot reader.

For the substance “5′-G*A*A*ACAGATGCTCCAT*G*G*T-3′ (antisense GAAACAGATGCTCCATGGT; listed as DNA, chemistry not fully specified) [SEQ.ID.NO 4, (Mu p65 rev)AS]”, in data set [1] (150 μg/animal, FIG. 7, significance if the non-responding control individual is excluded), the “influx of leukocytes in BALF compared to the control group” value is given as “no effect”. Further, the “influx of neutrophils in BALF compared to the control group” value in data set [1] (150 μg/animal, FIG. 8, significance if the non-responding control individual is excluded) is listed as “no effect”. Besides, in data set [1], the “number of infiltrating inflammatory cells in the BAL fluid” value is reported as “little effect”. In the data set on murine spleen cells [2], the “induction of IL-10 (positive spots per well)” value was “no induction”. The “induction of IFN-gamma compared to medium alone” value with murine spleen cells [3] is on record as “no such inducing potential”.

On to “5′-G*G*A*ACAGTTGCTCCAT*G*G*C-3′ (antisense GGAACAGTTGCTCCATGGC; listed as DNA, chemistry not fully specified) [SEQ.ID.NO 2, (Hu p65 rev)AS]”, for which, in the data set on human PBMC [4], the “induction of IFN-gamma producing cells versus background” value was “background level is not exceeded”. In addition, in the data set with human PBMC [5], the “concentration from which IL-10 producing cells are induced” value is listed as “around 100 uM” and the “induction of IL-10 producing cells” value is recorded as “failed to induce IL-10”. Besides, the “induction of IFN-alpha producing cells” value with human PBMC [6] is recorded as “fails to induce any measurable levels of IFN-alpha”.

In the case of “5′-G*G*T GCA TCG ATG CAG*G*G*G*G*G-3′ (GGTGCATCGATGCAGGGGGG; listed as DNA, chemistry not fully specified) [SEQ.ID.NO 6]”, the “induction of IL-10 producing cells” value in the data set with human PBMC [5] is on record as “strong potential to induce IL-10”.

“5′-T*C*C*A*T*G*A*C*G*T*T*C*C*T*G*A*C*G*T*T-3′ [SEQ.ID.NO 7]”: the “number of infiltrating inflammatory cells in the BAL fluid” value in data set [1] is “more dramatic level of inhibition being as effective as dexamethasone”. Moreover, in the data set on murine spleen cells [2], the “concentration at which IL-10 producing cells are first induced” value was 0.1 µM and the “induction of IL-10 (positive spots per well)” value was “induce significant levels of IL-10”. In addition, the “induction of IFN-gamma compared to medium alone” value with murine spleen cells [3] is “capable of inducing significant levels of IFN-gamma”.

On to “5′-T*C*G*T*C*G*T*T*T*T*G*T*C*G*T*T*T*T*G*T*C*G*T*T-3′ [SEQ.ID.NO 8]”, for which, in the data set on human PBMC [5], the “induction of IL-10 producing cells” value is reported as “strong potential to induce IL-10”. Further, in the data set with human PBMC [6], the “concentration at which induction of IFN-alpha starts / is apparent” value is 0.1 µM and the “induction of IFN-alpha producing cells” value is “strong potential to induce IFN-alpha”.
